The values that follow come from patent publication US9242959B2, “(Aza)benzhydryl ether derivatives, their process of preparation and their use as H4-receptor ligands for therapeutical applications” (BIOPROJET, priority 2012, dated 2016).

Structures can show the parent of a compound that is named as a salt.

The target in data set [1] is T1, human H4 receptor (Homo sapiens, UniProt Q9H3N8).
T1 construct: expressed in transfected cells
Kind of data set: [3H]Histamine binding assay on membranes of CHO cells stably expressing human H4 receptor. As for the experimental part:
CHO cells stably expressing human H4 receptor were grown until sub-confluence and centrifuged at 300 g 15 minutes at 4° C. Pellets were resuspended in buffer I Tris-HCl 50 mM, MgCl2 10 mM, NaCl 140 mM, pH=7.4 supplemented by a 1/50 dilution of a mix of protease inhibitors. The obtained suspension is stirred gently and submitted to a […] exerted through a syringe. The cell lysate is then centrifuged at 300 g 15 minutes at 4° C. in order to eliminate nucleus and cell scraps. The obtained supernatant was then centrifuged at 48000 g for 30 minutes at 4° C. The final pellet is resuspended in buffer I with a potter homogenizer. Aliquots were frozen in liquid nitrogen and stored until use at −80° C. Protein content is measured by the Bradford method.
Defreezed membranes were diluted at a final concentration of 20 μg/180 μL/well in a binding buffer containing 50 mM Tris/HCl, 0.5 mM EDTA, pH=7.4 and distributed in 96 well polystyrene microplate. [^3H] […] Non specific binding was estimated in the presence of 10 μM BP1.2404 (JNJ 7777120). The reaction was terminated by filtration through GF/B filters pre-soaked 2 hours at 4° C. in 1% polyethyleneimine. Filters were rinsed 3 times with 250 μl of ice cold incubation binding buffer.
The filter-bound radioactivity was measured in a liquid scintillation counter Microbeta TRILUX® with 50 μl of scintillation fluid.
The hH4 binding investigated by use of [^3H]

For data set [2], the target named is T1, human H4 receptor. Kind of data set: GTPγ[35S] binding assay on membranes of SH-SY5Y cells stably expressing human H4 receptor. The class given is biochemical. On the procedure:
SH-SY5Y cells stably expressing human H4 receptor are grown until sub-confluence and centrifuged at 300 g 15 minutes at 4° C. Pellets are resuspended in buffer I Tris-HCl 50 mM, MgCl2 10 mM, NaCl 140 mM, pH=7.4 supplemented by Leupeptin 10 μg/mL, Phenyl Methyl Sulphonyl Fluoride (PMSF) 0.1 mM, Aprotinin 2 μg/mL and Pepstatin 2 μM (or a 1/50 dilution of a mix of protease inhibitors). The obtained suspension is stirred gently and submitted to a […] exerted through a syringe. The cell lysate is then centrifuged at 300 g 15 minutes at 4° C. in order to eliminate nucleus and cell scraps. The obtained supernatant is then centrifuged at 48000 g for 30 minutes at 4° C. The final pellet is resuspended in buffer I with a potter homogenizer. Aliquots are frozen in liquid nitrogen and stored until use at −80° C. Protein content is measured by the Bradford method.
Defreezed membranes are diluted at a final concentration of 5 μg/180 μL/well in buffer I supplemented by GDP 10 μM and distributed in 96 well polystyrene microplate. GTPγ [^35S] labelled ligand (0.2-0.3 nM) is added for additional 30 minutes. After transfer in a Millipore GF/C HTS® microplate, the filtration of the rectional mix is followed by a three times 250 μl wash to stop the reaction.
The filter-bound radioactivity is measured in a liquid scintillation counter Microbeta TRILUX® with 50 μl of scintillation fluid.
Results are expressed with IC50 and Ki values.
(GTPγS is a poorly hydrolysed GTP analogue; its binding reports G protein activation.)

T1 sequence (Q9H3N8 whole entry): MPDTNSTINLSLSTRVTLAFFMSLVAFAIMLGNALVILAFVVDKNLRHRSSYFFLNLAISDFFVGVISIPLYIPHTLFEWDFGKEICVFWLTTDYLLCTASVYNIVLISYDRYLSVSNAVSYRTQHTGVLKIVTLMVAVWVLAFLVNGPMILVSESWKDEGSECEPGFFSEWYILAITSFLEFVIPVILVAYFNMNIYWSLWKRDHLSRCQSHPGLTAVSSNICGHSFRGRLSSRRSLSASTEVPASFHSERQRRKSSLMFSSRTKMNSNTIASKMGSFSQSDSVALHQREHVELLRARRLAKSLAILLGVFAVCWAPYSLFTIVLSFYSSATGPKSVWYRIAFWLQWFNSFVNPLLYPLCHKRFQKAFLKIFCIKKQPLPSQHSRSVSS

Usually melting point stands for the temperature, or range, at which the solid turns liquid. Compound `CN1CCC(OC(c2ccccn2)c2ccccc2O)CC1` (stereo not shown) (as salt: oxalate) [Example 19, 2-[(1-Methylpiperidin-4-yloxy)pyridin-2-ylmethyl]phenol, oxalate] yielded a melting point of 70 °C.

By Ki is commonly meant a measure of affinity in units of concentration, obtained from inhibition or displacement. Lower therefore signals tighter binding. In turn, `Cc1ccc(C(OC2CCN(C)CC2)c2ccccn2)c(F)c1.O=C(O)C(=O)O.O=C(O)C(=O)O` (stereo not shown) [Example 3, 2-[(2-Fluoro-4-methylphenyl)(1-methylpiperidin-4-yloxy)methyl]pyridine, dioxalate] returned a melting point of 59 °C. Besides, on human H4 receptor [1], the Ki was under 300 nM.

A word on the IC50: it is the point on the concentration scale where inhibition reaches its midpoint. High values mean weaker potency, low ones greater potency. `CN1CCC(OC(c2cccc(C#CCCCCN)c2)c2ccccn2)CC1` (stereo not shown) [Example 5, 6-{3-[(1-Methylpiperidin-4-yloxy)pyridin-2-ylmethyl]phenyl}hex-5-ynylamine, oxalate] had a Ki on human H4 receptor [1] of under 300 nM. The compound also displayed an IC50 on human H4 receptor [2] of under 300 nM.

`CN1CCC(OC(c2ccncc2)c2cc(OC(F)(F)F)ccc2F)CC1.O=C(O)C(=O)O.O=C(O)C(=O)O` (stereo not shown) [Example 6, 4-[(2-Fluoro-5-trifluoromethoxyphenyl)(1-methylpiperidin-4-yloxy)methyl]pyridine, dioxalate] had a melting point of 61 °C. Besides, the Ki at human H4 receptor [1] was under 300 nM.

`Cc1ccnc(C(OC2CCN(C)CC2)c2cc(OC(F)(F)F)ccc2F)c1.O=C(O)C(=O)O.O=C(O)C(=O)O` (stereo not shown) [Example 8, 2-[(2-Fluoro-5-trifluoromethoxyphenyl)(1-methylpiperidin-4-yloxy)methyl]-4-methylpyridine, dioxalate]: the melting point is 43 °C. On human H4 receptor [1], the Ki was under 300 nM.

`CN1CCC(OC(c2ccc(Cl)cc2)c2ccc(Cl)cn2)CC1.O=C(O)C(=O)O` (stereo not shown) [Example 9, 5-Chloro-2-[(4-chlorophenyl)(1-methylpiperidin-4-yloxy)methyl]pyridine, oxalate]: the melting point stood at 190 °C. At human H4 receptor [1], this compound came in with a Ki of under 300 nM.

For `CN1CCC(OC(c2ccc(F)cn2)c2cc(OC(F)(F)F)ccc2F)CC1.O=C(O)C(=O)O` (stereo not shown) [Example 11, 5-Fluoro-2-[(2-fluoro-5-trifluoromethoxyphenyl)(1-methylpiperidin-4-yloxy)methyl]pyridine, oxalate], the melting point came out at 113 °C. This compound also registered a Ki on human H4 receptor [1] of under 1000 nM.

The compound `COc1cccc(C(OC2CCN(C)CC2)c2ccc(Cl)cn2)c1.O=C(O)C(=O)O` (stereo not shown) [Example 12, 5-Chloro-2-[(3-methoxyphenyl)(1-methylpiperidin-4-yloxy)methyl]pyridine, oxalate] showed a melting point of 175 °C. The same compound displayed an inhibition constant Ki at human H4 receptor [1] of under 1000 nM.

For `CN1CCC(OC(c2cccc(I)c2)c2ccc(Cl)cn2)CC1.O=C(O)C(=O)O` (stereo not shown) [Example 13, 5-Chloro-2-[(3-iodophenyl)(1-methylpiperidin-4-yloxy)methyl]pyridine, oxalate], the melting point stood at 130 °C. For the same compound, the Ki on human H4 receptor [1] was under 300 nM.

`Cc1ccc(C(OC2CCN(C)CC2)c2cc(C(F)(F)F)ccn2)c(F)c1.O=C(O)C(=O)O` (stereo not shown) [Example 14, 2-[(2-Fluoro-4-methylphenyl)(1-methylpiperidin-4-yloxy)methyl]-4-trifluoromethylpyridine, oxalate] displayed a melting point of 104 °C. The inhibition constant Ki on human H4 receptor [1] was under 300 nM.

The compound `CN1CCC(OC(c2ccc(F)cn2)c2ccc(F)c(F)c2O)CC1` (stereo not shown) [Example 15, 2,3-Difluoro-6-[(5-fluoropyridin-2-yl)(1-methylpiperidin-4-yloxy)methyl]phenol] yielded a melting point of 73 °C. At human H4 receptor [1], the Ki was under 1000 nM.

Turning to `CN1CCC(OC(c2ccc(Cl)cn2)c2ccc(F)c(F)c2O)CC1` (stereo not shown) [Example 16, 6-[(5-Chloropyridin-2-yl)(1-methylpiperidin-4-yloxy)methyl]-2,3-difluorophenol], the melting point is 68 °C. In addition, the Ki at human H4 receptor [1] was under 300 nM.

In turn, `CCOC(=O)NCCCCC#Cc1cccc(C(OC2CCN(C)CC2)c2ccccn2)c1.O=C(O)C(=O)O` (stereo not shown) [Example 17, (6-{3-[(1-Methylpiperidin-4-yloxy)pyridin-2-ylmethyl]phenyl}hex-5-ynyl)carbamic acid ethyl ester, oxalate] registered a melting point of 77 °C. At human H4 receptor [1], this compound returned an inhibition constant Ki of under 1000 nM.

Regarding `CN1CCC(OC(c2ccccn2)c2ccccc2O)CC1` (stereo not shown) [Example 19, 2-[(1-Methylpiperidin-4-yloxy)pyridin-2-ylmethyl]phenol, oxalate], at human H4 receptor [1], the Ki was under 300 nM.

In the case of `CN1CCC(OC(c2ccc(F)cn2)c2ccc(F)cc2O)CC1.O=C(O)C(=O)O` (stereo not shown) [Example 20, 5-Fluoro-2-[(5-fluoropyridin-2-yl)(1-methylpiperidin-4-yloxy)methyl]phenol, oxalate], the melting point was 105 °C. The compound further registered a Ki at human H4 receptor [1] of under 300 nM.

In turn, `Cc1ccc(C(OC2CCN(C)CC2)c2ccc(F)cn2)c(O)c1F` (stereo not shown) [Example 21, 2-Fluoro-6-[(5-fluoropyridin-2-yl)(1-methylpiperidin-4-yloxy)methyl]-3-methylphenol] came in with a melting point of 62 °C. The same compound had an inhibition constant (Ki) at human H4 receptor [1] of under 300 nM.

Take `Cc1ccc(C(OC2CCN(C)CC2)c2ccc(Cl)cn2)c(O)c1F` (stereo not shown) [Example 22, 6-[(5-Chloropyridin-2-yl)(1-methylpiperidin-4-yloxy)methyl]-2-fluoro-3-methylphenol]: the melting point stood at 67 °C. The compound also returned a Ki on human H4 receptor [1] of under 30 nM.

Regarding `CN1CCC(OC(c2ccc(Cl)cn2)c2ccc(F)cc2O)CC1` (stereo not shown) [Example 23, 2-[(5-Chloropyridin-2-yl)(1-methylpiperidin-4-yloxy)methyl]-5-fluorophenol], the melting point turned out to be 57 °C. In addition, the Ki on human H4 receptor [1] is under 30 nM.

The compound `Cc1ccc(C(OC2CCN(C)CC2)c2ccc(F)cn2)c(O)c1.O=C(O)C(=O)O` (stereo not shown) [Example 24, 2-[(5-Fluoropyridin-2-yl)(1-methylpiperidin-4-yloxy)methyl]-5-methylphenol, oxalate] showed a melting point of 77 °C. On human H4 receptor [1], this compound registered an inhibitory constant (Ki) of under 30 nM.

`Cc1ccc(C(OC2CCN(C)CC2)c2ccc(Cl)cn2)c(O)c1.O=C(O)C(=O)O` (stereo not shown) [Example 25, 2-[(5-Chloropyridin-2-yl)(1-methylpiperidin-4-yloxy)methyl]-5-methylphenol, oxalate] yielded a melting point of 77 °C. This compound also had a Ki on human H4 receptor [1] of under 30 nM.

Take `Cc1ccc(C(OC2CCN(C)CC2)c2cc(F)ccn2)c(O)c1F` (stereo not shown) [Example 26, 2-Fluoro-6-[(4-fluoropyridin-2-yl)(1-methylpiperidin-4-yloxy)methyl]-3-methylphenol]: the melting point was 64 °C. Further, the Ki on human H4 receptor [1] is under 300 nM.

Regarding `Cc1ccc(C(OC2CCN(C)CC2)c2cccc(I)c2)cc1.O=C(O)C(=O)O` (stereo not shown) [Example 27, 4-[(3-Iodophenyl)-p-tolylmethoxy]-1-methylpiperidine, oxalate], the melting point is 60 °C. The same compound gave a Ki on human H4 receptor [1] of under 1000 nM.

In the case of `Cc1ccc(C(OC2CCN(C)CC2)c2ccc3ccccc3c2)c(F)c1.O=C(O)C(=O)O` (stereo not shown) [Example 29, 4-[(2-Fluoro-4-methylphenyl)naphthalen-2-yl-methoxy]-1-methylpiperidine, oxalate], the melting point came out at 122 °C. For the same compound, at human H4 receptor [2], the half-inhibitory concentration (IC50) is under 1000 nM.

Compound `Cc1ccc(C(OC2CCN(C)CC2)c2ccc(Cl)cc2)c(F)c1.O=C(O)C(=O)O` (stereo not shown) [Example 34, 4-[(4-Chlorophenyl)(2-fluoro-4-methylphenyl)methoxy]-1-methylpiperidine, oxalate] registered a melting point of 165 °C. This compound registered a Ki on human H4 receptor [1] of under 300 nM.

In the case of `CN1CCC(OC(c2ccc(Cl)cc2)c2cccc(C#CCCCCN)c2)CC1` (stereo not shown) [Example 36, 6-{3-[(4-Chlorophenyl)(1-methylpiperidin-4-yloxy)methyl]phenyl}hex-5-ynylamine, dioxalate], the inhibition constant (Ki) at human H4 receptor [1] was under 30 nM. Moreover, on human H4 receptor [2], the IC50 is under 30 nM.

In the case of `CN1CCC(OC(c2cccc(I)c2)c2ccccn2)CC1` (stereo not shown) [Example 37, 2-[(3-Iodophenyl)(1-methylpiperidin-4-yloxy)methyl]pyridine, oxalate], the Ki on human H4 receptor [1] was under 1000 nM.
